From patent US8227428B2, “Anti-infammatory macrolide” (Glaxo Group Limited, priority 2009, dated 2012)

Experiment: Stability in buffer solutions pH 2 to pH 8 at 25° C.
Assay type: physicochemical
Method: Stability in buffer solutions pH 2 to pH 8 at 25° C., and in bio-relevant media (SGF pH 1.6, Fasted SIF pH 6.5 and Fed SIF pH 5.0) at 37° C., during 24 hours is monitored. The samples are analysed by LC/MS.
Buffer Solutions and Physiologically Relevant Media Used in Stability Assay:
LC Conditions: Instrument HP1100
Column: Waters XBridge C18, 2.1×50 mm, 3.5 μm
Guard column: Waters XBridge C18, 2.1×10 mm, 3.5 μm
• A) 0.1% HCOOH/H2O • B) 0.1% HCOOH/CH3CN Gradient Timetable: […]
Flow: 0.3 mL/min Column temp.: 25° C. Sample temp.: 25° C. (for stability assay in buffer solutions) • 37° C. (for stability assay in bio-relevant media) Injector volume: 3 μL (without injection program) MS Conditions: Instrument HP MS API-ES, positive ion mode Mass Range: 150-1500 Fragmentor: 100 Gain: 1.0 Treshold: 150 Step size: 0.20 Gas Temperature: 350° C. Drying Gas Flow: 13 L/min Nebulizer Pressure: 35 psig Capillary Voltage Positive 4000 V • Negative 4000 V Sample Preparation: a) For Stability Assay in Buffer Solutions
Compounds are dissolved in CH3CN to produce a 1 mg/mL stock solution. The stock solution is diluted to a concentration of 0.2 mg/mL (1 mL solution in 4 mL buffer) with appropriate buffer to produce a working solution.
Each solution at each pH is then dispatched into vials that are sealed and stored at room temperature in order to be analyzed at the proper time point. Before analysis, pH values of prepared sample solutions are checked and adjusted if neccessary.

## CC[C@H]1OC(=O)[C@H](C)[C@@H](O[C@H]2C[C@@](C)(OC)[C@@H](OC(=O)CN(CC)CC)[C@H](C)O2)[C@H](C)[C@@H](O[C@@H]2O[C@H](C)C[C@H](N(C)C)[C@H]2O)[C@](C)(OC)C[C@@H](C)C(=O)N[C@H](C)[C@@H](O)[C@]1(C)O [Example 3, 4″-O-(2-diethylaminoethanoyl)-6-O-methyl-9a-aza-9a-homoerythromycin A]
25° C., during 24 hours
  stability in buffers pH 2 to 8: showed stability
pH 2, 25° C., 2 h
  Percentage (Area %) of the compound observed in buffers: 99.4 Area %
pH 2, 25° C., 4 h
  Percentage (Area %) of the compound observed in buffers: 99.5 Area %
pH 2, 25° C., 6 h
  Percentage (Area %) of the compound observed in buffers: 99.5 Area %
pH 2, 25° C., 8 h
  Percentage (Area %) of the compound observed in buffers: 99.5 Area %
pH 2, 25° C., 12 h
  Percentage (Area %) of the compound observed in buffers: 99.6 Area %
pH 2, 25° C., 14 h
  Percentage (Area %) of the compound observed in buffers: 99.6 Area %
pH 2, 25° C., 18 h
  Percentage (Area %) of the compound observed in buffers: 99.6 Area %
pH 2, 25° C., 20 h
  Percentage (Area %) of the compound observed in buffers: 99.5 Area %
pH 2, 25° C., 22 h
  Percentage (Area %) of the compound observed in buffers: 99.5 Area %
pH 2, 25° C., 24 h
  Percentage (Area %) of the compound observed in buffers: 99.5 Area %
pH 2, 25° C., Initial
  Percentage (Area %) of the compound observed in buffers: 100 Area %
pH 3, 25° C., 2 h
  Percentage (Area %) of the compound observed in buffers: 99.8 Area %
pH 3, 25° C., 4 h
  Percentage (Area %) of the compound observed in buffers: 99.6 Area %
pH 3, 25° C., 6 h
  Percentage (Area %) of the compound observed in buffers: 99.5 Area %
pH 3, 25° C., 8 h
  Percentage (Area %) of the compound observed in buffers: 99.8 Area %
pH 3, 25° C., 12 h
  Percentage (Area %) of the compound observed in buffers: 99.6 Area %
pH 3, 25° C., 14 h
  Percentage (Area %) of the compound observed in buffers: 99.8 Area %
pH 3, 25° C., 18 h
  Percentage (Area %) of the compound observed in buffers: 99.7 Area %
pH 3, 25° C., 20 h
  Percentage (Area %) of the compound observed in buffers: 99.6 Area %
pH 3, 25° C., 22 h
  Percentage (Area %) of the compound observed in buffers: 99.4 Area %
pH 3, 25° C., 24 h
  Percentage (Area %) of the compound observed in buffers: 99.4 Area %
pH 3, 25° C., Initial
  Percentage (Area %) of the compound observed in buffers: 100 Area %
pH 4, 25° C., 2 h
  Percentage (Area %) of the compound observed in buffers: 99.1 Area %
pH 4, 25° C., 4 h
  Percentage (Area %) of the compound observed in buffers: 99.0 Area %
pH 4, 25° C., 6 h
  Percentage (Area %) of the compound observed in buffers: 99.1 Area %
pH 4, 25° C., 8 h
  Percentage (Area %) of the compound observed in buffers: 99.2 Area %
pH 4, 25° C., 12 h
  Percentage (Area %) of the compound observed in buffers: 99.2 Area %
pH 4, 25° C., 14 h
  Percentage (Area %) of the compound observed in buffers: 99.2 Area %
pH 4, 25° C., 18 h
  Percentage (Area %) of the compound observed in buffers: 99.2 Area %
pH 4, 25° C., 20 h
  Percentage (Area %) of the compound observed in buffers: 98.9 Area %
pH 4, 25° C., 22 h
  Percentage (Area %) of the compound observed in buffers: 99.1 Area %
pH 4, 25° C., 24 h
  Percentage (Area %) of the compound observed in buffers: 99.2 Area %
pH 4, 25° C., Initial
  Percentage (Area %) of the compound observed in buffers: 100 Area %
pH 5, 25° C., 2 h
  Percentage (Area %) of the compound observed in buffers: 100 Area %
pH 5, 25° C., 4 h
  Percentage (Area %) of the compound observed in buffers: 99.9 Area %
pH 5, 25° C., 6 h
  Percentage (Area %) of the compound observed in buffers: 99.9 Area %
pH 5, 25° C., 8 h
  Percentage (Area %) of the compound observed in buffers: 99.9 Area %
pH 5, 25° C., 12 h
  Percentage (Area %) of the compound observed in buffers: 99.9 Area %
pH 5, 25° C., 14 h
  Percentage (Area %) of the compound observed in buffers: 99.9 Area %
pH 5, 25° C., 18 h
  Percentage (Area %) of the compound observed in buffers: 99.9 Area %
pH 5, 25° C., 20 h
  Percentage (Area %) of the compound observed in buffers: 99.8 Area %
pH 5, 25° C., 22 h
  Percentage (Area %) of the compound observed in buffers: 99.9 Area %
pH 5, 25° C., 24 h
  Percentage (Area %) of the compound observed in buffers: 99.9 Area %
pH 5, 25° C., Initial
  Percentage (Area %) of the compound observed in buffers: 100 Area %
pH 6, 25° C., 2 h
  Percentage (Area %) of the compound observed in buffers: 100 Area %
pH 6, 25° C., 4 h
  Percentage (Area %) of the compound observed in buffers: 100 Area %
pH 6, 25° C., 6 h
  Percentage (Area %) of the compound observed in buffers: 100 Area %
pH 6, 25° C., 8 h
  Percentage (Area %) of the compound observed in buffers: 100 Area %
pH 6, 25° C., 12 h
  Percentage (Area %) of the compound observed in buffers: 99.9 Area %
pH 6, 25° C., 14 h
  Percentage (Area %) of the compound observed in buffers: 99.8 Area %
